# Tests used:
# Assay type in all cases: in vivo
# Parameters in all cases: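 grade 0 to 5 of growth suppression where 5 is 90% or more and 0 below 10%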
# [1] = tested on: Echinochloa oryzicola Vasing; experiment: Herbicidal effects in paddy field soil treatment (Test Example 1); details: paddy field soil treatment; 1000 g of the active ingredient per hectare; wettable powder added dropwise on water surface; 21st day after treatment
# In short: (§1)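 Seeds sown in puddled paddy soil, waterlogged to 3 cm depth; next day a diluted wettable powder applied dropwise to the water surface at 1000 g active ingredient per hectare. Herbicidal effect scored 21 days after treatment in a greenhouse.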
# [2] = tested on: Monochoria vaginalis (Burm. f.) Presl var. plantaginea (Roxb.) Solms-Laub.; experiment: as above; details: paddy field soil treatment; 1000 g of the active ingredient per hectare; wettable powder added dropwise on water surface; 21st day after treatment
# In short: as §1
# [3] = tested on: Scirpus juncoides Roxb. var. ohwianus. T. Koyama; experiment: as above; details: paddy field soil treatment; 1000 g of the active ingredient per hectare; wettable powder added dropwise on water surface; 21st day after treatment
# In short: as §1
# [4] = tested on: Abutilon theophrasti medicus; experiment: Herbicidal effects in upland field soil treatment (Test Example 2); details: 1000 g active ingredient per hectare, 21st day after treatment, criteria of Table 138
# In short: (§2)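 Pre-emergence test: seeds sown in upland soil, then soil surface sprayed with diluted wettable powder at 1000 g active ingredient per hectare (1000 liters per hectare). Greenhouse growth; herbicidal effect scored on day 21 against set criteria.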
# Amaranthus viridis L. [5] = experiment: as above; details: 1000 g active ingredient per hectare, 21st day after treatment, criteria of Table 138
# In short: as §2
# [6] = tested on: Abutilon theophrasti medicus; experiment: Herbicidal effects in upland field foliar treatment (Test Example 3); details: criteria of Table 138; for herbicidal effect (index) on Abutilon theophrasti medicus: 1000 g active ingredient per hectare, 14th day after treatment; for herbicidal effects on Abutilon theophrasti medicus: 1000 g of the active ingredient per hectare, 14th day after the treatment, wettable powder
# In short: (§3)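 Plants grown two weeks from seed in upland soil in a greenhouse, then sprayed overall with water-diluted wettable powder at 1000 L/ha delivering 1000 g active ingredient/ha. Herbicidal effect scored by rating criteria 14 days after treatment.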
# Amaranthus viridis L. [7] = experiment: as above; details: criteria of Table 138; for herbicidal effect (index) on Amaranthus viridis L.: 1000 g active ingredient per hectare, 14th day after treatment; for herbicidal effects on Amaranthus viridis L.: 1000 g of the active ingredient per hectare, 14th day after the treatment, wettable powder
# In short: as §3
# [8] = tested on: Echinochloa crus-galli (L.) P. Beauv. var. crus-galli; experiment: as above; details: criteria of Table 138; for herbicidal effect (index) on Echinochloa crus-galli (L.) P. Beauv. var. crus-galli: 1000 g active ingredient per hectare, 14th day after treatment; for herbicidal effects on Echinochloa crus-galli (L.) P. Beauv. var. crus-galli: 1000 g of the active ingredient per hectare, 14th day after the treatment, wettable powder
# In short: as §3
SMILES,"Herbicidal effects index, Echinochloa oryzicola Vasing [1]","Herbicidal effects index, Monochoria vaginalis (Burm. f.) Presl var. plantaginea (Roxb.) Solms-Laub. [2]","Herbicidal effects index, Scirpus juncoides Roxb. var. ohwianus. T. Koyama [3]",herbicidal effect (index) on Abutilon theophrasti medicus [4],herbicidal effect (index) on Amaranthus viridis L. (Amaranthus viridis L. [5]),herbicidal effect (index) on Abutilon theophrasti medicus [6],herbicidal effect (index) on Amaranthus viridis L. (Amaranthus viridis L. [7]),herbicidal effect (index) on Echinochloa crus-galli (L.) P. Beauv. var. crus-galli [8],herbicidal effects on Abutilon theophrasti medicus [6],herbicidal effects on Amaranthus viridis L. (Amaranthus viridis L. [7]),herbicidal effects on Echinochloa crus-galli (L.) P. Beauv. var. crus-galli [8]
O=C1CCCC(O)=C1C(=O)c1nc2ccccc2n(-c2ccccc2)c1=O [II-1],5,5,5,5,5,5,5,5,,,
COCc1ccc(-n2c(=O)c(C(=O)C3=C(O)CCCC3=O)nc3ccccc32)cc1 [II-149],5,5,5,4,5,,,,5,5,5
O=C1CCCC(O)=C1C(=O)c1nc2cccnc2n(-c2ccccc2F)c1=O [IV-6],4,5,5,5,5,,,,5,5,4
O=C1CCCC(O)=C1C(=O)c1nc2ccccc2n(C2CC2)c1=O [Compound I-14],4,5,5,5,5,5,5,4,,,
CC(C)(C)OC(=O)Cn1c(=O)c(C(=O)C2=C(O)CCCC2=O)nc2ccccc21 [Compound I-99],5,5,5,5,5,5,5,5,,,
CC1(C)CC(=O)C(C(=O)c2nc3cccnc3n(-c3ccccc3)c2=O)=C(O)C1 [IV-3],5,5,5,5,5,,,,5,5,5
O=C1CCCC(O)=C1C(=O)c1nc2cccc(F)c2n(-c2ccccc2)c1=O [II-243],5,5,5,5,5,,,,5,5,5
O=C1CCCC(O)=C1C(=O)c1nc2ccccc2n(-c2ccccc2Cl)c1=O [II-9],5,5,5,5,4,5,5,5,,,
Cn1c(=O)c(C(=O)C2=C(O)CCCC2=O)nc2cccc(Cl)c21 [I-229],4,5,5,5,5,5,5,4,,,
COc1ccc2nc(C(=O)C3=C(O)CCCC3=O)c(=O)n(-c3ccc(F)cc3)c2c1 [II-304],5,5,5,5,5,,,,5,5,4
COc1ccc(-n2c(=O)c(C(=O)C3=C(O)CCCC3=O)nc3ccccc32)cn1 [I-189],5,5,5,5,5,5,5,4,,,
O=C1CCCC(O)=C1C(=O)c1nc2ccccc2n(-c2cccc([N+](=O)[O-])c2)c1=O [II-130],5,5,5,5,5,,,,5,5,5
O=C1CCCC(O)=C1C(=O)c1nc2ccc(F)cc2n(-c2ccc3c(c2)OCCO3)c1=O [II-242],5,5,5,4,5,,,,4,5,5
CCOC(=O)Cn1c(=O)c(C(=O)C2=C(O)CCCC2=O)nc2cccnc21 [III-96],5,5,5,5,5,,,,5,5,5
O=C1CCCC(O)=C1C(=O)c1nc2c(Cl)cccc2n(-c2ccccc2)c1=O [II-190],5,5,5,5,4,,,,5,5,4

# Reference: patent US8389523B2, “Substituted quinoxaline and an agrochemical composition thereof” (Kumiai Chemical Industry Co., Ltd., priority 2007, dated 2013)
